In assay [1] the target is HCV NS3/4A protease complex, BMS strain (UniProt P27958, C1454S/C1711G, species not given/STRAIN_BMS). As to the kind of experiment: Recombinant HCV NS3/4A protease complex FRET peptide assay (BMS strain). Type of assay: biochemical, HCV genotype 1a. As to conditions: NS3/4A BMS strain; read-out: IC50 range. In a few lines: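 Recombinant BMS-strain NS3/4A (His-tagged NS4A with three-lysine tail, E. coli) at 2-3 nM preincubated 1 min with compound, then 2 μM ester-linked NS4A/NS4B-based FRET peptide added. Fluorescence followed in real time ~15 min at 25° C. Percent inhibition from slope of linear fluorescence change versus no-compound control.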

Assay [2] concerns HCV replicon in Huh7 cells. As to the kind of experiment: HCV replicon cell-based assay. The conditions noted are these: Hepatitis C virus, Huh-7; HCV replicon, Huh7 cells; read-out: EC50 range. Further details: species or system HCV strain 1B. The text has this: HCV Replicon Cell-based Assay
This system enabled us to evaluate the effects of our HCV Protease compounds on HCV RNA replication. Briefly, using the HCV strain 1B sequence described in the Lohmann paper (Assession number:AJ238799), an HCV cDNA was generated encoding the 5′ internal ribosome entry site (IRES), the neomycin resistance gene, the EMCV (encephalomyocarditis virus)-IRES and the HCV nonstructural proteins, NS3-NS5B, and 3′ non-translated region (NTR). In vitro transcripts of the cDNA were transfected into the human hepatoma cell line, Huh7. […] Resulting cell lines were characterized for positive and negative strand RNA production and protein production over time.
Huh7 cells, constitutively expressing the HCV replicon, were grown in Dulbecco's Modified Eagle Media (DMEM) containing 10% Fetal calf serum (FCS) and 1 mg/ml G418 (Gibco-BRL). Cells were seeded the night before (1.5×10^4 cells/well) in 96-well tissue-culture sterile plates. Compound and no compound controls were prepared in DMEM containing 4% FCS, 1:100 Penicillin/Streptomysin, 1:100 L-glutamine and 5% DMSO in the dilution plate (0.5% DMSO final concentration in the assay). Compound/DMSO mixes were added to the cells and incubated for 4 days at 37° C. After 4 days, plates were rinsed thoroughly with Phosphate-Buffered Saline (PBS) (3 times 150 μl). The cells were lysed with 25 μl of a lysis assay reagent containing the FRET peptide (RET S1, as described for the in vitro enzyme assay). The lysis assay reagent was made from 5× cell Luciferase cell culture lysis reagent(Promega #E153A) diluted to 1× with distilled water, NaCl added to 150 mM final, the FRET peptide diluted to 10 μM final from a 2 mM stock in 100% DMSO. The plate was then placed into the Cytofluor 4000 instrument which had been set to 340 nm excitation/490 emission, automatic mode for 21 cycles and the plate read in a kinetic mode. EC50 determinations were carried out as described for the IC50 determinations.
Cells were lyzed using the Rneasy kit (Qiagen). […] All primers were designed with ABI Prism 7700 software and obtained from Biosearch Technologies, Novato, Calif. Samples containing known concentrations of HCV RNA transcript were run as standards. Using the following cycling protocol (50° C., 30 min; 95° C., 5 min; 40 cycles of 95° C., 15 sec, 60° C., 1 min), HCV RNA expression was quantitated as described in the Perkin Elmer manual using the ABI Prism 7700 Sequence Detector.

With `C=C[C@@H]1C[C@]1(NC(=O)[C@@H]1C[C@@H](Oc2nccc3cccc(C)c23)CN1C(=O)[C@@H](NC(=O)OC(C)(C)C)C(C)(C)C)C(=O)NS(=O)(=O)C1CC1` [Compound 263], the IC50 (in general, the concentration that gives 50% inhibition) in assay [1] lay within 100 to 1000 nM. In addition, the EC50 (commonly the concentration that produces a half-maximal response) in assay [2] was in the range of 100 to 1000 nM.

Turning to `CC[C@@H]1C[C@]1(NC(=O)[C@@H]1C[C@@H](Oc2nccc3c4c(ccc23)OCCO4)CN1C(=O)[C@@H](NC(=O)OC(C)(C)C)C(C)(C)C)C(=O)NS(=O)(=O)C1CC1` [Compound 290], in assay [1], the IC50 was below 100 nM. In addition, in assay [2], the EC50 is below 100 nM.

In the case of `C=CC1C[C@]1(NC(=O)[C@@H]1C[C@@H](Oc2nccc3c4c(c(SC)cc23)OCO4)CN1C(=O)[C@@H](NC(=O)OC(C)(C)C)C(C)(C)C)C(=O)NS(=O)(=O)C1CC1` (stereo partly drawn) [Compound 213, BOCNH-P3(L-t-BuGly)-P2[(4R)-(4-methylthio-1,3-dioxa-7-aza-cyclopenta[a]naphthalen-6-yloxy)-S-proline]-P1(1R,2S VinylAcca)-CONHSO2Cyclopropane], the IC50 in assay [1] was below 100 nM. In addition, the EC50 in assay [2] is below 100 nM.

Turning to `C=C[C@@H]1C[C@]1(NC(=O)[C@@H]1C[C@@H](Oc2nc(Cl)cc3ccccc23)CN1C(=O)[C@@H](NC(=O)OC(C)(C)C)C(C)(C)C)C(=O)NS(=O)(=O)C1CC1` [Compound 24], in assay [1], the IC50 was below 100 nM. For the same molecule, in assay [2], the EC50 is below 100 nM.

As to `C=C[C@@H]1C[C@]1(NC(=O)[C@@H]1C[C@@H](Oc2nccc3cc(OC)ccc23)CN1C(=O)[C@@H](NC(=O)N[C@H](C(=O)OCc1ccccc1)C(C)C)C(C)(C)C)C(=O)NS(=O)(=O)C1CC1` [Compound 150], the IC50 in assay [1] is below 100 nM. Also, in assay [2], the EC50 is below 100 nM.

With `C=C[C@@H]1C[C@]1(NC(=O)[C@@H]1CC(Oc2nccc3cc(OC)ccc23)CN1C(=O)[C@@H](NC(=O)C1CCCC1)C(C)(C)C)C(=O)NS(=O)(=O)C1CC1` (stereo partly drawn) [Compound 56], in assay [1], the IC50 was below 100 nM. Moreover, the EC50 in assay [2] was below 100 nM.

As for `C=C[C@@H]1C[C@]1(NC(=O)[C@@H]1C[C@@H](Oc2nccc3cc(OC)ccc23)CN1C(=O)C(NC(=O)OC(C)(C)C)C(C)c1ccccc1)C(=O)NS(=O)(=O)C1CC1` (single isomer, unassigned) [Compound 135], the IC50 in assay [1] was below 100 nM. Also, the concentration for a half-maximal effect (EC50) in assay [2] lay in the range of 100 to 1000 nM.

In the case of `C=C[C@@H]1C[C@]1(NC(=O)[C@@H]1C[C@@H](Oc2cc(C)nc(-c3ccccc3)c2)CN1C(=O)[C@@H](NC(=O)OC(C)(C)C)C(C)(C)C)C(=O)NS(=O)(=O)C1CC1` [Compound 437], the half-maximal inhibitory concentration (IC50) in assay [1] was below 100 nM. The EC50 in assay [2] lay within 100 to 1000 nM.

On to `C=CC1C[C@]1(NC(=O)[C@@H]1C[C@@H](Oc2nc3c(c4ccccc24)CCC3)CN1C(=O)[C@@H](NC(=O)OC(C)(C)C)C(C)(C)C)C(=O)NS(=O)(=O)C1CC1` (stereo partly drawn) [Compound 215, BOCNH-P3(L-t-BuGly)-P2[(1R)-(2,3-dihydro-1 H-4aza -cyclopenta[α]naphthalen-5-yloxy)-S-proline]-P1(1R,2S VinylAcca)-CONHSO2Cyclopropane], for which the IC50 in assay [1] was below 100 nM. The EC50 in assay [2] is below 100 nM.

With `C=C[C@@H]1C[C@]1(NC(=O)[C@@H]1C[C@@H](Oc2nc(Cl)cc3cc(OC)ccc23)CN1C(=O)[C@@H](NC(=O)OC(C)(C)C)C(C)(C)C)C(=O)NS(=O)(=O)C1CC1` [Compound 40], in assay [1], the IC50 was below 100 nM. In assay [2], the EC50 lay in the range of 100 to 1000 nM.

Turning to `C=C[C@@H]1C[C@]1(NC(=O)[C@@H]1C[C@@H](Oc2nccc3c(F)c(OC)ccc23)CN1C(=O)[C@@H](NC(=O)OC(C)(C)C)C(C)(C)C)C(=O)NS(=O)(=O)C1CC1` [Compound 274], the IC50 in assay [1] is below 100 nM. In assay [2], the EC50 was 100 to 1000 nM.

Regarding `C=C[C@@H]1C[C@]1(NC(=O)[C@@H]1CC(Oc2nccc3cc(OC)ccc23)CN1C(=O)[C@@H](NC(=O)N(C)C(C)(C)C)C(C)(C)C)C(=O)NS(=O)(=O)C1CC1` (stereo partly drawn) [Compound 77], in assay [1], the IC50 is below 100 nM. The EC50 in assay [2] was 100 to 1000 nM.

For the molecule `C=C[C@@H]1C[C@]1(NC(=O)[C@@H]1C[C@@H](Oc2nccc3c(N4CCOCC4)cccc23)CN1C(=O)[C@@H](NC(=O)OC(C)(C)C)C(C)(C)C)C(=O)NS(=O)(=O)C1CC1` [Compound 271], the IC50 in assay [1] is below 100 nM. The EC50 in assay [2] lay in the range of 100 to 1000 nM.

In the case of `C=CC1C[C@]1(NC(=O)[C@@H]1C[C@@H](Oc2cccc3c(Cl)ccnc23)CN1C(=O)[C@@H](NC(=O)OC(C)(C)C)C(C)(C)C)C(=O)NS(=O)(=O)C1CC1` (stereo partly drawn) [Compound 242, BOCNH-P3(L-t-BuGly)-P2[(4R)-(4-chloroquinoline-8-oxo)-S -proline]-P1(1R,2S VinylAcca)-CONHSO2Cyclopropane], the IC50 in assay [1] is below 100 nM. In addition, in assay [2], the EC50 fell in the range of 1000 to 10000 nM.

Regarding `C=C[C@@H]1C[C@]1(NC(=O)[C@@H]1C[C@@H](Oc2nccc3ccc(OC)cc23)CN1C(=O)[C@@H](NC(=O)OC(C)(C)C)C(C)(C)C)C(=O)NS(=O)(=O)C1CC1` [Compound 260], the IC50 in assay [1] was below 100 nM. The EC50 in assay [2] lay in the range of 100 to 1000 nM.

Consider `C=C[C@@H]1C[C@]1(NC(=O)[C@@H]1C[C@@H](Oc2nccc3ccccc23)CN1C(=O)[C@@H](NC(=O)COC)C(C)(C)C)C(=O)NS(=O)(=O)C1CC1` [Compound 131], for which the IC50 in assay [1] was in the range of 100 to 1000 nM. For the same molecule, in assay [2], the EC50 lay in the range of 1000 to 10000 nM.

For `C=C[C@@H]1C[C@]1(NC(=O)[C@@H]1CC(Oc2nc(-c3ccccc3)cc3ccccc23)CN1C(=O)[C@@H](NC(=O)OC(C)(C)C)[C@H](C)OC)C(=O)NS(=O)(=O)C1CC1` (stereo partly drawn) [Compound 108], the IC50 in assay [1] was below 100 nM. The EC50 in assay [2] was below 100 nM.

With `C=C[C@@H]1C[C@]1(NC(=O)[C@@H]1C[C@@H](Oc2nccc3c(OC(F)(F)F)cccc23)CN1C(=O)[C@@H](NC(=O)OC(C)(C)C)C(C)(C)C)C(=O)NS(=O)(=O)C1CC1` [Compound 269], the IC50 in assay [1] is below 100 nM. Besides, in assay [2], the EC50 lay in the range of 100 to 1000 nM.

Consider `C=C[C@@H]1C[C@]1(NC(=O)[C@@H]1C[C@@H](Oc2nc(-c3ncc(OC)o3)cc3cc(OC)ccc23)CN1C(=O)[C@@H](NC(=O)OC(C)(C)C)C(C)(C)C)C(=O)NS(=O)(=O)C1CC1` [Compound 39], for which the IC50 in assay [1] was below 100 nM. For the same molecule, the EC50 in assay [2] is below 100 nM.

In the case of `C=CC1C[C@]1(NC(=O)[C@@H]1C[C@@H](Oc2nccc(-c3cccs3)n2)CN1C(=O)[C@@H](NC(=O)OC)C(C)(C)C)C(=O)NS(=O)(=O)C1CC1` (stereo partly drawn) [Compound 337], the IC50 in assay [1] fell in the range of 100 to 1000 nM. The EC50 in assay [2] was in the range of 1000 to 10000 nM.

Consider `C=C[C@@H]1C[C@]1(NC(=O)[C@@H]1C[C@@H](Oc2nccc3ccc(C)cc23)CN1C(=O)[C@@H](NC(=O)OC(C)(C)C)C(C)(C)C)C(=O)NS(=O)(=O)C1CC1` [Compound 259], for which the IC50 in assay [1] was below 100 nM. Also, the EC50 in assay [2] is below 100 nM.

As to `C=CC1C[C@]1(NC(=O)[C@@H]1C[C@@H](Oc2nccc3sccc23)CN1C(=O)[C@@H](NC(=O)OC(C)(C)C)C(C)(C)C)C(=O)NS(=O)(=O)C1CC1` (stereo partly drawn) [Compound 235], the IC50 in assay [1] was below 100 nM. In addition, the EC50 in assay [2] is 100 to 1000 nM.

For `C=C[C@@H]1CC1(NC(=O)[C@@H]1CC(Oc2nccc3cc(OC)ccc23)CN1C(=O)[C@@H](NC(=O)CO[C@@H]1C[C@H](C)CC[C@H]1C(C)C)C(C)(C)C)C(=O)NS(=O)(=O)C1CC1` (stereo partly drawn) [Compound 61], the IC50 in assay [1] is 100 to 1000 nM. The EC50 in assay [2] fell in the range of 1000 to 10000 nM.

For `C=CC1CC1(NC(=O)[C@@H]1C[C@@H](Oc2cc(C(F)(F)F)nc3ccc(F)cc23)CN1C(=O)[C@@H](NC(=O)OC(C)(C)C)C(C)(C)C)C(=O)NS(=O)(=O)C1CC1` (stereo partly drawn) [Compound 450], the IC50 in assay [1] is below 100 nM. Also, in assay [2], the EC50 lay within 100 to 1000 nM.

The values are drawn from patent US7915291B2, “Hepatitis C virus inhibitors” (Bristol-Myers Squibb Company, priority 2002, dated 2011).
